Molecular target: T1, Interstitial collagenase (Homo sapiens, UniProt P03956)
T1 sequence (P03956 whole entry): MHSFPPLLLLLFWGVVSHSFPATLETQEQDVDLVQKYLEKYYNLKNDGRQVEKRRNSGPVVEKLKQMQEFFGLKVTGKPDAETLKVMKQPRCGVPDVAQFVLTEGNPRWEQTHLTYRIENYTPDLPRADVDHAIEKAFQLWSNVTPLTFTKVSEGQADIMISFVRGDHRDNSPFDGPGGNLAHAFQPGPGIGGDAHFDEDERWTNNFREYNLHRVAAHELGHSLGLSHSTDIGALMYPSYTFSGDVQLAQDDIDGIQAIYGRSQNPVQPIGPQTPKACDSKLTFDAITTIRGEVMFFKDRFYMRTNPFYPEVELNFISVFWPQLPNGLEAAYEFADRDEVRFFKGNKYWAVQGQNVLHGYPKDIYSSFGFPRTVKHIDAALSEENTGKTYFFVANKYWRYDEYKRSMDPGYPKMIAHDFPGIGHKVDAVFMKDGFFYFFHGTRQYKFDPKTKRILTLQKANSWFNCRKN
Assay: Inhibition of human fibroblast collagenase

IC50	Structure (SMILES)
20 nM	CNC(=O)[C@H](Cc1ccccc1)NC(=O)[C@H](CC(C)C)N[C@@H](CCN1C(=O)c2cccc3c(Br)ccc(c23)C1=O)P(=O)(O)O
> 100000 nM	CNC(=O)[C@H](Cc1ccccc1)NC(=O)[C@H](CC(C)C)NC(CCN1C(=O)c2cccc3cccc(c23)C1=O)[PH](=O)O (stereo not given in full)
30 nM	CNC(=O)[C@H](Cc1ccccc1)NC(=O)[C@H](CC(C)C)N[C@@H](CCN1C(=O)c2cccc3cccc(c23)C1=O)P(=O)(O)O
1630 nM	CNC(=O)[C@H](Cc1ccccc1)NC(=O)[C@H](CC(C)C)N[C@H](CCN1C(=O)c2cccc3c(Br)ccc(c23)C1=O)P(=O)(O)O
360 nM	CNC(=O)[C@H](Cc1ccccc1)NC(=O)[C@H](CC(C)C)NC(CCN1C(=O)c2ccccc2C1=O)P(=O)(O)O (stereo not given in full)
150 nM	CNC(=O)[C@H](Cc1ccccc1)NC(=O)[C@H](CC(C)C)N[C@H](CCN1C(=O)c2cccc3cccc(c23)C1=O)P(=O)(O)O
730 nM	CNC(=O)[C@H](Cc1ccccc1)NC(=O)[C@H](CC(C)C)NC(CCCN1C(=O)c2cccc3cccc(c23)C1=O)P(=O)(O)O (stereo not given in full)
37000 nM	CNC(=O)[C@H](CC(C)C)NC(=O)[C@H](CC(C)C)CP(=O)(O)CNC(C)=O
190 nM	CNC(=O)[C@H](Cc1ccccc1)NC(=O)[C@H](CC(C)C)N[C@@H](CCN1C(=O)c2ccccc2C1=O)P(=O)(O)O
2120 nM	CNC(=O)[C@H](Cc1ccccc1)NC(=O)[C@H](CC(C)C)NC(CN1C(=O)c2cccc3cccc(c23)C1=O)P(=O)(O)O (stereo not given in full)
